Data taken from ChEMBL document CHEMBL5500346, “Targeting EGFR degradation by autophagosome degraders” (Eur J Med Chem, 2024).
Activity calls are given as the source filed them. Unless noted, the calls are words filed in the database; no cut-off is given here.

What was measured:
[1] = Toxicity in C57BL/6 mouse assessed as serum ALT level at 200 mg/kg, ip measured after 24 hrs (reference value: 42.554 U/L); format: organism-based; settings: in vivo
[2] = biological target: T1, Microtubule-associated protein 1 light chain 3 beta/Epidermal growth factor receptor (Homo sapiens, UniProt P00533+Q9GZQ8); assay: ATTEC activity at LC3B/EGFR in human HCC827 cells assessed as protein degradation at 1 uM measured after 48 hrs by Western blot analysis; format: cell-based
[3] = Toxicity in C57BL/6 mouse assessed as serum AST level at 200 mg/kg, ip measured after 24 hrs (reference value: 234.682 U/L); format: organism-based; settings: in vivo
[4] = biological target: T1, Microtubule-associated protein 1 light chain 3 beta/Epidermal growth factor receptor; assay: ATTEC activity at LC3B/EGFR in human HCC827 cells assessed as increase in density of lysosomes incubated for 4 hrs by LysoTracker Red staining based analysis; format: cell-based
[5] = biological target: T1, Microtubule-associated protein 1 light chain 3 beta/Epidermal growth factor receptor; assay: ATTEC activity at LC3B/EGFR in human PC-9 cells assessed as protein degradation; format: cell-based
[6] = Toxicity in C57BL/6 mouse assessed as histological change in kidney upto 200 mg/kg, ip measured after 24 hrs by H and E staining based analysis; format: organism-based; settings: in vivo
[7] = biological target: T1, Microtubule-associated protein 1 light chain 3 beta/Epidermal growth factor receptor; assay: ATTEC activity at LC3B/EGFR in human NCI-H3255 cells assessed as protein degradation; format: cell-based
NCI-H3255 = assay: Antiproliferative activity against human NCI-H3255 cells incubated for 72 hrs by CCK8 assay; format: functional, cell-based; settings: NCI-H3255, 72 h
PC-9 [8] = assay: In vivo ATTEC activity at LC3B/EGFR in human PC-9 cells implanted in NOD-SCID mouse assessed as protein degradation at 20 mg/kg, ip measured after 24 hrs by Western blot analysis; format: functional, organism-based
[9] = Toxicity in C57BL/6 mouse assessed as tremor upto 200 mg/kg, ip measured after 24 hrs; format: organism-based; settings: in vivo
[10] = Half life in Sprague-Dawley rat at 20 mg/kg, po; format: ADME, organism-based; settings: in vivo
PC-9 [11] = assay: Anti-tumor activity against human PC-9 cells implanted in NOD-SCID mouse at 10 mg/kg, ip administered every other day for 3 weeks relative to control; format: functional; settings: PC-9, 504 h, read-out: TGI
[12] = Toxicity in C57BL/6 mouse assessed as serum urea level at 100 mg/kg, ip measured after 24 hrs (reference value: 18.934 mmol/L); format: organism-based; settings: in vivo
[13] = Toxicity in C57BL/6 mouse assessed as serum TBIL level at 100 mg/kg, ip measured after 24 hrs (reference value: 18.958 umol/L); format: organism-based; settings: in vivo
[14] = Toxicity in C57BL/6 mouse assessed as change in hematological indicators upto 200 mg/kg, ip measured after 24 hrs by blood cell analysis; format: organism-based; settings: in vivo
[15] = Toxicity in C57BL/6 mouse assessed as serum ALB level at 200 mg/kg, ip measured after 24 hrs (reference value: 40.01 g/L); format: organism-based; settings: in vivo
L02 = assay: Antiproliferative activity against human HL7702 cells incubated for 72 hrs by CCK8 assay; format: toxicity, cell-based; settings: l02, 72 h
PC-9 [16] = assay: Anti-tumor activity against human PC-9 cells implanted in NOD-SCID mouse at 5 mg/kg, ip administered every other day for 3 weeks relative to control; format: functional; settings: PC-9, 504 h, read-out: TGI
[17] = biological target: T1, Microtubule-associated protein 1 light chain 3 beta/Epidermal growth factor receptor; assay: ATTEC activity at LC3B/EGFR in EBSS-treated human HCC827 cells assessed as protein degradation by Western blot analysis; format: cell-based
[18] = biological target: T1, Microtubule-associated protein 1 light chain 3 beta/Epidermal growth factor receptor; assay: ATTEC activity at LC3B/EGFR in human HCC827 cells assessed as protein degradation at 1 uM measured after 12 hrs by Western blot analysis relative to control; format: cell-based
[19] = Toxicity in NOD-SCID mouse bearing human PC-9 cells assessed as body weight loss at 5 to 20 mg/kg, ip administered every other day for 3 weeks; format: organism-based; settings: in vivo, 504 h, dose 5-20 mg/kg
[20] = Toxicity in C57BL/6 mouse assessed as serum uric acid level at 200 mg/kg, ip measured after 24 hrs (reference value: 78.784 umol/L); format: organism-based; settings: in vivo
[21] = Toxicity in C57BL/6 mouse assessed as serum TBA level at 100 mg/kg, ip measured after 24 hrs (reference value: 2.674 umol/L); format: organism-based; settings: in vivo
PC-9 [22] = assay: Inhibition of colony formation in human PC-9 cells incubated for 2 weeks by crystal violet staining based analysis; format: functional, cell-based; settings: dose 0.1-10 µM
[23] = Toxicity in C57BL/6 mouse assessed as serum TBIL level at 200 mg/kg, ip measured after 24 hrs (reference value: 18.958 umol/L); format: organism-based; settings: in vivo
[24] = biological target: T1, Microtubule-associated protein 1 light chain 3 beta/Epidermal growth factor receptor; assay: ATTEC activity at LC3B/EGFR in rapamycin-treated human HCC827 cells assessed as protein degradation by Western blot analysis; format: cell-based

For `COc1cc2ncnc(Nc3ccc(F)c(Cl)c3)c2cc1OCCOCCOCCOCCNC(=O)COc1c(Br)cc(/C=C2\C(=O)Nc3ccc(I)cc32)cc1Br`, the Activity [1] was 43.302 U/L, the Activity [2] was “Active” and the Activity [3] was 159.506 U/L. For the same compound, the Activity [4] was “Active”, the Activity [5] was “Active” and the Activity [6] was “Non-Toxic”. For the same compound, the Activity [7] was “Active”, the IC50 (NCI-H3255) was 3000 nM and the Activity (PC-9 [8]) was “Active”. For the same compound, the Activity [9] was “Non-Toxic”, the half-life [10] was 18.4 min and the inhibition in vivo at 10 mg/kg (PC-9 [11]) was 51.6%. For the same compound, the Activity [12] was 19.63 mmol/L, the Activity [13] was 17.83 µmol/L and the Activity [14] was “Non-Toxic”. The Activity [15] was 40.048 g/L, the Activity (L02) was “Non-Toxic” and the inhibition in vivo at 5 mg/kg (PC-9 [16]) was 35%. The Activity [17] was “Active”, the Activity [18] was 68% and the Activity [19] was “Non-Toxic”. The Activity [20] was 49.734 µmol/L, the Activity [21] was 2.53 µmol/L and the inhibition (PC-9 [22]) was “Dose-Dependent Effect”. For the same compound, the Activity [23] was 16.068 µmol/L and the Activity [24] was “Active”.
